One may read the pIC50 as −log10 of the IC50, conventionally taken in molar units.

pIC50: −log10 of the molar value. Entries after “also recorded” stand apart in the source; their conditions may differ.

Data on one molecule can be found in paper PMC8453745, “Human Mass Balance and Metabolite Profiling of [^14C]‐Pamiparib, a Poly (ADP‐Ribose) Polymerase Inhibitor, in Patients With Advanced Cancer” (Clinical Pharmacology in Drug Development, 2021).

Data set [1] in a line: total radioactivity in whole blood of patients (LSC). It counts as in vivo, human. Particulars: n = 4. The text has this: Part 1 of the study included a screening phase of up to 28 days prior to drug administration to assess eligibility. Patients were admitted to the clinical research unit (CRU) at Royal Liverpool University Hospital (Liverpool, UK)/Clatterbridge Cancer Centre NHS Foundation Trust (Bebington, Wirral, UK) on day −1 and received a single dose of 60‐mg/100 μCi [^14C]‐pamiparib orally the morning of day 1. Patients remained in the CRU until completion of assessments on day 7, when discharge criteria of ≈90% of the radioactive dose being recovered or <1% of the radioactive dose being recovered in urine and feces for 2 consecutive 24‐hour collection intervals were met. […]
Patients fasted overnight and 2 hours after oral administration of a single 60‐mg dose containing ≈100 μCi (3.7‐3.9 MBq) of [^14C]‐pamiparib with ≈240 mL of room‐temperature water or juice (orange or grape). The residual radioactivity present in each vial postdose was corrected from the dose. The radioactive dose of 100 μCi of [^14C]‐pamiparib provided minimum risk to patients according to the dosimetry calculation from a quantitative whole‐body autoradiography study in male and female Long Evans rats; the dose also provided sufficient signal for total radioactivity counting and quantitative radioprofiling in blood, plasma, and excreta (data on file). […]

Data set [2] deals with CYP1A2, CYP2B6, CYP2C9, CYP2C19. The data set is described as follows: CYP450 phenotyping in HLMs with all other CYP inhibitors. It counts as in vitro ADME, human. The note with it: HLM incubation. On the procedure: Metabolic stability in human liver microsomes (HLMs) and cytochrome P450 (CYP450) phenotyping assays were conducted in 3D BioOptima (Suzhou, China) using validated methodology, [13] to determine the intrinsic clearance and enzymes responsible for metabolism of pamiparib. HLMs for microsome stability was from BD Biosciences (Woburn, New York). For phenotyping, HLMs and recombinant P450 (rCYP) were from Corning (Woburn, New York). Pamiparib (1 μM) was incubated with pooled HLM (0.5 mg/mL), NADPH (1 mM), and MgCl2 (3 mM) terminated at 0, 5, 15, 30, 60, and 90 minutes. The intrinsic clearance was calculated as 0.693/(t1/2 × HLM concentration), where t1/2 is the half‐life of pamiparib determined in HLMs. For phenotyping in HLMs, pamiparib (1 μM) was incubated in the absence or presence of isoform‐selective inhibitors: 0.2 μM α‐naphthoflavone for CYP1A2, 2 μM clopidogrel for CYP2B6, 16 μM montelukast for CYP2C8, 10 μM sulfaphenazole for CYP2C9, 30 μM nootkatone for CYP2C19, 2 μM quinidine for CYP2D6, and 1 μM ketoconazole for CYP3A. The following isoform‐selective probe substrates served as positive controls: 40 μM phenacetin for CYP1A2, 100 μM bupropion for CYP2B6, 2 μM amodiaquine for CYP2C8, 5 μM diclofenac for CYP2C9, 40 μM S‐mephenytoin for CYP2C19, 5 μM dextromethorphan for CYP2D6, and 2 μM midazolam for CYP3A4. […] Pamiparib, M1, and M2 were analyzed by LC‐MS/MS.

For data set [3], the system named is PARP activity. Set-up: method as in PMID 33264017. The note with it: read-out: inhibition of PARP activity in cellular PARylation assay, IC50; cited from earlier work.
The subject of data set [4] is rat bone marrow. More on the design: method as in data on file. The note with it: in vivo rat bone marrow micronucleus assay; ref data on file; cited from earlier work.

For the molecule `C[C@]12CCCN1CC1=NNC(=O)c3cc(F)cc4[nH]c2c1c34` [Pamiparib], in data set [1], the “AUC0‐∞ ratio blood/plasma, geometric mean (CV%)” value is given as “≈ 0.764; also recorded: ≈ 0.76”. Further, the “effect of all other CYP inhibitors on pamiparib metabolism” value in data set [2] is given as “nearly no effect”. Moreover, the pIC50 in data set [3] is 9.70. In addition, the clastogenic activity result in data set [4] is reported as “clastogenic activity”.
